Data on ten molecules can be found in US20110301235A1, “ORGANOSELENIUM COMPOUNDS AND USES THEREOF” (Alquest Therapeutics, Inc., priority 2009, published 2011).

≈ marks a conversion by molar mass, not a printed value.

One data set is described as follows: Solubility measurements. The class given is physicochemical. To be noted: 100 mM NaCl buffer, aqueous buffer, kinetic from dmso stock; 25 mM Hepes pH 7.4, 100 mM NaCl; 30 minutes at room temperature; centrifuged; absorbance at 260 nm; read-out: solubility (solubility limit). As to the method: A 2-fold serial dilution of compounds was prepared in 25 mM Hepes pH 7.4, 100 mM NaCl. After 30 minutes at room temperature, precipitates were removed by centrifugation at 18,000×G for 15 min. The supernatant was transferred to a microtiter plate and absorbance at 260 nm was determined. The concentration at which there was no longer a linear increase in absorbance was determined as the solubility limit. The compounds in the examples generally had better solubilities than the reference compound 2-phenyl-1,2-benzisoselenazol-3(2H)-one (66-100 μM), with the compounds described in Examples 1-9 having solubilities of 300, 300, 100, 66-100, 300, 300-600, 1000, 1000, and 1000 μM.
For `O=c1c2ccccc2[se]n1-c1ccccc1` [2-phenyl-1,2-benzisoselenazol-3(2H)-one, reference compound], the solubility at 30 min lay within 66 to 100 µM (≈ 18.1 to 27.4 µg/mL).

Staying with this data set, now noted: aqueous buffer, kinetic from dmso stock; 25 mM Hepes pH 7.4, 100 mM NaCl; 30 minutes at room temperature; centrifuged; absorbance at 260 nm; read-out: solubility (solubility limit).
Take `Cl.NCCS[Se]c1ccccc1C(=O)Nc1ccccc1` [Example 5]: the solubility at 30 min was 300 µM.

Take `CCOC(=O)CNC(=O)[C@H](CS[Se]c1ccccc1C(=O)Nc1ccccc1)NC(=O)CC[C@H](N)C(=O)O.Cl` [Example 8]: the solubility at 30 min was 1000 µM.

As for `CCOC(=O)[C@@H](N)CS[Se]c1ccccc1C(=O)Nc1ccccc1.Cl` [Example 3], the solubility at 30 min came out at 100 µM.

With `Cl.N[C@@H](CCC(=O)N[C@@H](CS[Se]c1ccccc1C(=O)Nc1ccccc1)C(=O)NCC(=O)O)C(=O)O` [Example 9], the solubility at 30 min worked out at 1000 µM.

Staying with this data set, now noted: pH 7.4, aqueous buffer, kinetic from dmso stock.
Turning to `CC(=O)N[C@@H](CS[Se]c1ccccc1C(=O)Nc1ccccc1)C(=O)O` [Example 2], the concentration in solution (solubility at 30 min) was 300 µM (≈ 131 µg/mL).

Consider `CC(C)(CO)[C@@H](O)C(=O)NCCC(=O)NCCS[Se]c1ccccc1C(=O)Nc1ccccc1` [Example 1], for which the concentration in solution (solubility at 30 min) came to 300 µM (≈ 166 µg/mL).

`O=C(Nc1ccccc1)c1ccccc1[Se]SCCO` [Example 6]: the solubility at 30 min was 300 to 600 µM (≈ 106 to 211 µg/mL).

Regarding `CCOC(=O)[C@H](CS[Se]c1ccccc1C(=O)Nc1ccccc1)NC(C)=O` [Example 4], the solubility at 30 min lay within 66 to 100 µM (≈ 30.7 to 46.5 µg/mL).

As to `O=C(Nc1ccccc1)c1ccccc1[Se]SCCS(=O)(=O)O` [Example 7], the solubility at 30 min was 1000 µM (≈ 416 µg/mL).
